Earlier results in patent publication US8821924B2, “Rhein or diacerein compositions” (Wockhardt Ltd., priority 2007, dated 2014).

Details: water, alcohols, acetone, dichloromethane and chloroform

solubility in solvents: practically insoluble
SMILES: CC(=O)Oc1cccc2c1C(=O)c1c(OC(C)=O)cc(C(=O)O)cc1C2=O [Diacerein, 4,5-bis(acetyloxy)9,10-dihydro-4,5-dihydroxy-9,10-dioxo-2-anthracenecarboxylic acid]
